# Data published in US6254882A, “Methods and compositions for treating pulmonary disorders using optically pure (S)--salmeterol” (Sepracor Inc., priority 1997, dated 2001).
# Columns and labels:
# [1] = tested on: isolated guinea pig tracheal strips; assay: Relaxation of histamine-contracted isolated guinea pig tracheal strips; parameters: species or system guinea pig (male Hartley); conditions: for EC50: Cavia porcellus, % of maximum relaxation by 1 mM papaverine, tested up to 1000 nM, r(log-lin) = 0.9453-0.9968, (S)-salmeterol extrapolated from three data points, read-out: EC50 Tracheal Relaxation, determined by linear regression of percent maximum response
# [2] = tested on: isolated guinea pig right atria; assay: Chronotropic effect on isolated guinea pig right atria (atrial rate); parameters: species or system guinea pig (male Hartley); conditions: for EC50: Cavia porcellus, % of rate produced by 1 μM forskolin, tested up to 1000 nM, r(log-lin) = 0.9453-0.9968, read-out: EC50 Atrial Rate, determined by linear regression of percent maximum response
# [3] = as described in the PDR, even by inhalation; cited from earlier work
# [4] = target: human β2 AR (Homo sapiens, UniProt P07550); assay: Competitive binding to human β2-adrenergic receptor ([125I]iodopindolol, Sf9 cell membranes); conditions: radioligand [125I]iodopindolol; read-out: Kd for radioligand binding to human β2 ARs
# [5] = target: human β1 AR (Homo sapiens, UniProt P08588); assay: Competitive binding to human β1-adrenergic receptor ([125I]iodopindolol, Sf9 cell membranes); conditions: radioligand [125I]iodopindolol; read-out: Kd for radioligand binding to human β1 ARs
# human β1 AR, sequence (P08588 whole entry): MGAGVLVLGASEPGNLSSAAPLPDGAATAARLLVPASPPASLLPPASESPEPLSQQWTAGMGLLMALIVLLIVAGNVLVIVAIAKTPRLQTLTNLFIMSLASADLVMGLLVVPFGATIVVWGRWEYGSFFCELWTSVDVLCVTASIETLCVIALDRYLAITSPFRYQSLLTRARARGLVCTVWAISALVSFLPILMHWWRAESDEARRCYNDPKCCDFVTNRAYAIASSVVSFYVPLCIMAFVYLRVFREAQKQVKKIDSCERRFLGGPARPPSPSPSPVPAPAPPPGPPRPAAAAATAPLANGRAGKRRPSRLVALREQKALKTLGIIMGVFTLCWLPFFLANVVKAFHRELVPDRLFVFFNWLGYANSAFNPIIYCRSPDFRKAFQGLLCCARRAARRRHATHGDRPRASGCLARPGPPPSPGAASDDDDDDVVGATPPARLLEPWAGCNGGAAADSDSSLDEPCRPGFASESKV
# human β2 AR, sequence (P07550 whole entry): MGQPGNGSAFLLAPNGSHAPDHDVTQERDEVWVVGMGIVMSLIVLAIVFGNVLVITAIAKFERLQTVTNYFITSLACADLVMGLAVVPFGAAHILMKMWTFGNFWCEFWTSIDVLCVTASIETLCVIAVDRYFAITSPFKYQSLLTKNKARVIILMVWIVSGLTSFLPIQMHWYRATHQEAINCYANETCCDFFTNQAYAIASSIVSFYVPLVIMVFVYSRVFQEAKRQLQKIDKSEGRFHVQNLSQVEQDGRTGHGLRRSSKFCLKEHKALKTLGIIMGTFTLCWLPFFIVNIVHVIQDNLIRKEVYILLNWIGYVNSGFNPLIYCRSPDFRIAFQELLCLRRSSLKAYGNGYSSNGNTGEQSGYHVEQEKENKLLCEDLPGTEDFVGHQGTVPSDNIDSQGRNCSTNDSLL
Structure (SMILES),EC50 [1] [nM],EC50 [2] [nM],further results
"OCc1cc(C(O)CNCCCCCCOCCCCc2ccccc2)ccc1O (racemic) [(RS)-Salmeterol, 4-hydroxy-α^1 - [[[6(4-phenylbutoxy)-hexyl]amino]methyl]-1,3-benzenedimethanol]",273,3520,"adverse effects [3]: tachycardia, palpitations, urticaria, angioedema, rash, bronchospasms, headache, tremors, nervousness, and paradoxical bronchospasms"
"OCc1cc([C@H](O)CNCCCCCCOCCCCc2ccccc2)ccc1O [(S)-Salmeterol, S enantiomer of 4-hydroxy-α^1 - [[[6(4-phenylbutoxy)-hexyl]amino]methyl]-1,3-benzenedimethanol]",3150,–,"potency for tracheal relaxation compared with (S,S)-formoterol ([1]; extrapolated from three data points): equivalent in potency; efficacy with respect to tracheal relaxation ([1]; in words): full efficacy could be achieved; potency for tracheal relaxation compared with racemic formoterol or its (R,R)-enantiomer ([1]; in words): significantly less potent; effect on atrial rate compared with vehicle control ([2]; in words): essentially the same effect on atrial rate as the vehicle control"
CC(C)NC[C@H](O)COc1cccc2[nH]cc(I)c12 [[^125 l] iodopindolol],–,–,Kd [4]: 0.02 nM; Kd [5]: 2 nM
C=C[C@@]1(C)CC(=O)[C@]2(O)[C@@]3(C)[C@@H](O)CCC(C)(C)[C@@H]3[C@H](O)[C@H](OC(C)=O)[C@@]2(C)O1 [forskolin],–,–,"rate of spontaneous contraction of right atria ([2]; 1 μM forskolin, basal roughly 140-170 bpm): 195-250 bpm"
COc1ccc(Cc2nccc3cc(OC)c(OC)cc23)cc1OC [papaverine],–,–,relaxation of histamine-contracted tracheal strips ([1]; 1 mM papaverine): complete relaxation

# Second part, led by results:
EC50 [1] [nM],EC50 [2] [nM],Structure (SMILES),further results
673,272,CC(C)(C)NCC(O)c1ccc(O)c(CO)c1 (racemic) [(RS)-Albuterol],–
747,177,CC(C)(C)NC[C@H](O)c1ccc(O)c(CO)c1 [(R)-Albuterol],potency for tracheal relaxation relative to (S)-salmeterol ([1]; relative to (S)-salmeterol): approximately four
149,1730,OCc1cc([C@@H](O)CNCCCCCCOCCCCc2ccccc2)ccc1O [(R)-Salmeterol],–
100000,> 10000,CC(C)(C)NC[C@@H](O)c1ccc(O)c(CO)c1 [(S)-Albuterol],–
